Measured values taken from patent US20240382461A1, “PHARMACEUTICAL COMPOSITION AND METHOD FOR PREVENTION AND TREATMENT OF HEARING LOSS” (PHARMAZZ, INC., priority 2023, published 2024).
pKi: −log10 of the molar value. Entries after “also recorded” stand apart in the source; their conditions may differ. Numbered stars: 1 amine (or outer) side, 2 acyl side, 3 side chain; on linkers, the order of the positions; unused ones are H or OH. Ends that are not written are not given here. Suc = O=C(CCC(=O)[*:2])[*:1]

Assays:
[1] = test system: aminoglycoside-induced hearing loss; assay: Kanamycin/furosemide (aminoglycoside)-induced hearing loss in mice, intra-tympanic injection, ABR; format: in vivo, mouse; conditions: after kanamycin/furosemide (K/F) exposure; 5 and 15 ug/kg intra-tympanic; 8, 16 and 32 kHz
Text: (§1) The study aimed to determine whether Sovateltide (IRL-1620, PMZ-1620); an endothelin-B receptor agonist has otoprotective efficacy and that Sovateltide can ameliorate noise- or aminoglycoside-induced hearing loss in a mouse model system. Animals received either unilateral intra-tympanic Sovateltide at one of two dose concentrations or vehicle control injection. The study conducted unilateral auditory brainstem response (ABR) hearing tests at baseline and again at least 14 days after noise or aminoglycoside exposure as the primary measurement. A gross anatomical examination of treated middle ears was also conducted at necropsy.
(§2) FIG. 4 describes the study design where male and female mice were divided into seven groups, each with ten mice. Groups 1-3 were treated with 112-decibel noise to induce cochlear trauma, whereas groups 4-6 were treated with kanamycin+frusomide to induce aminoglycoside-induced cochlear trauma, and group 7 was kept as the control. In addition, Sovateltide in two different doses was administered in groups 1, 2, 4, and 5, while the vehicle, phosphate-buffered saline, was administered in groups 3, 6, and 7. The auditory brainstem response (ABR) test was performed at baseline and day 14 after noise or aminoglycoside exposure.
[Male & female C57Bl/6 mice used in this study were obtained from Charles River Labs. […]

ETB receptors [2] = conditions: cited from earlier work
[3] = test system: ETB and vascular endothelial growth factor (VEGF) in the cerebrovasculature; conditions: administration on post-natal day 21; rat brain; cited from earlier work
ETB receptors [4] = assay: Ki of sovateltide for ETB receptors (literature); format: binding; conditions: ratio of Ki values
[5] = test system: noise-induced hearing loss; assay: Noise-induced hearing loss in mice, intra-tympanic injection, auditory brainstem response (ABR); format: in vivo, mouse; conditions: after noise exposure
Text: as §1, §2
[Male & female C57Bl/6 mice used in this study were obtained from Charles River Labs. All study animals (n=69) underwent anesthesia via 87.5 mg/kg (Ketamine)/12.5 mg/kg (Xylazine) IP injection and baseline unilateral left ear ABR testing at 8, 16, and 32 kHz.
Study animals in Groups 1-6 (n=59) underwent cochlear trauma, either via noise (112 dB SPL, 8-16 kHz band, 2-hr duration) exposure while awake, with the goal of producing a moderate chronic hearing loss in all animals or a single injection of subcutaneous kanamycin and intraperitoneal furosemide on Day 0. The noise treatment typically produced moderate hearing losses in the range of 20-50 dB and scattered losses of outer hair cells but little, if any, loss of inner hair cells. […]

ETA receptors = molecular target: T1, ETA receptors (Sus scrofa, UniProt Q29010); conditions: cited from earlier work
T1 sequence (Q29010 21-427): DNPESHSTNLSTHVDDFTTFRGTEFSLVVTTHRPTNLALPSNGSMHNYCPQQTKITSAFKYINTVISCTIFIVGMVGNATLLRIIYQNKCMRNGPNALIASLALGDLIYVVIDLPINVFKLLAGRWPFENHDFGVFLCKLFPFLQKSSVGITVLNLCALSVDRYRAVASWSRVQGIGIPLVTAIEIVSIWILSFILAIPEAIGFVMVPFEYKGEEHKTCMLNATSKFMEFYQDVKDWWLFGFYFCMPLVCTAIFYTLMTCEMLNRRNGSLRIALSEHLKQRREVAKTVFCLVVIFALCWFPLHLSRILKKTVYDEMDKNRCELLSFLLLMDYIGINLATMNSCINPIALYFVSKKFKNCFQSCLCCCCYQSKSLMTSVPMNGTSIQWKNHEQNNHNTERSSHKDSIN

[6] = test system: adult mouse cochlear cells; assay: Cultured adult mouse cochlear cells, JC 1 dye mitochondrial membrane potential, confocal imaging; format: cell-based; conditions: 1 ng/ml for 7 days
Description: Inner ears comprising cochlear neuroepithelium from adult mice were dissected after anesthetizing with urethane 1.5 g/kg body weight and euthanizing with cervical dislocation. Inner ears were placed in cold saline, and the cochlea was dissected under the dissection microscope. The isolated cochlea was placed in a cold saline solution and chopped finely in a sterile condition inside a culture hood. Minced tissues were transferred to a 15 ml falcon tube and centrifuged at 1000 RPM for 2 min. The supernatant was discarded, and the pellet was submersed in 1× Trypsin EDTA solution (Cat No. R-001-100, GIBCO, MA) and triturated using a 1 ml pipette and cut-tip. The triturated tissue was incubated at 37° C. for 20 min. After 20 min, the digested tissues were vortexed gently and checked for proper digestion of the tissues. The digestion step was repeated by adding the same volume of 1× trypsin EDTA solution and incubating for 10 minutes. After a satisfactory level of digestion, the tissue solution was filtered with a sieve of pore size 40 μm to isolate cell suspension and remove undigested tissues. The cell suspension was collected in a 15 ml falcon tube, and 1 ml of serum-containing cell culture media was added and mixed properly to stop further digestion. The cochlear cell solution was centrifuged at 2000 RPM for 3 min at RT. The cell pellet was resuspended in 8 ml of 10% fetal bovine serum containing culture media and plated in 60 mm tissue culture-treated plastic plates (Alkali Scientific Inc. Fort Lauderdale, FL). The Neurobasal culture media supplemented with B-27 (Gibco, Waltham, MA) was used for culturing cochlear cells. […]
Sovateltide treatment—The cultured mouse cochlear cells were treated with 1 ng/ml sovateltide for 7 days in 2 different conditions—1) Serum-free media and 2) Serum containing media. […] Fluorescence confocal microscopy imaging was done on live cells. […]
JC-1 is a novel cationic carbocyanine dye that accumulates in mitochondria. The dye exists as a monomer at low concentrations and yields green fluorescence, similar to fluorescein. […]

selectivity for ETB over ETA receptors (ETB receptors [4]): ~120,000 times
Substance: synthetic analog of ET-1, ETB receptor agonist; Suc-Asp-Glu-Glu-Ala-Val-Tyr-Phe-Ala-His-Leu-Asp-Ile-Ile-Trp; CAS #142569-99-1 (Suc-DEEAVYFAHLDIIW) [Sovateltide, N-Succinyl-[Glu9, Ala11,15] endothelin 1]
ABR threshold shift from baseline to Day 14 versus vehicle [1]: not significantly different; also recorded: did not produce statistically reliable differences; also recorded: did not have any discernible impact
pKi (ETB receptors [2]): 10.80
ETB and VEGF expression in the cerebrovasculature [3]: significant increase
ABR threshold shift at 8 kHz versus vehicle ([5]; 5 ug/kg intra-tympanic, p=0.2513): trend of lower threshold shift
ABR threshold shift at 8 kHz versus vehicle ([5]; 15 ug/kg intra-tympanic, p=0.0834): trend of lower threshold shift; also recorded: nearly significant effect
ABR threshold shift from baseline to Day 14 versus vehicle ([5]; 5 and 15 ug/kg intra-tympanic, 8, 16 and 32 kHz): not significantly different; also recorded: did not produce statistically reliable differences
pKi (ETA receptors): 5.72
mitochondrial protection (JC 1 mitochondrial membrane potential) versus saline control ([6]; serum containing media): reduction in compromised mitochondrial protection
mitochondrial protection (JC 1 mitochondrial membrane potential) versus saline control ([6]; serum-free media): more mitochondrial protection than control
mitochondrial protection (JC 1 mitochondrial membrane potential) versus saline control ([6]; serum-free media, listed as sovateltide): notable improvement in mitochondrial protection and improved cellular viability
